The source of these data is publication PMC3388883, “Parallel and four-step synthesis of natural-product-inspired scaffolds through modular assembly and divergent cyclization” (Beilstein Journal of Organic Chemistry, 2012).

Converted amounts (≈) assume the structure as drawn. Like-named read-outs stand apart in the source and are kept apart here.

Series [1] concerns T. brucei brucei GUTat 3.1. Put plainly: In vitro anti-trypanosomal activity (Alamar Blue). Particulars: for Selectivity Index (SI): (IC50 for MRC-5)/(IC50 for T. brucei brucei); for IC50: Trypanosoma brucei, read-out: IC50 anti-trypanosomal activity; for IC50 / IC50 anti-trypanosomal activity: 72 h. Type of series: cell-based, Trypanosoma brucei brucei. How it is done:
With collections of the natural-product-inspired molecules in hand, in vitro anti-trypanosomal activities were evaluated by employing a GUTat 3.1 strain of T. brucei brucei (Table 1) according to the previously reported protocols (Supporting Information File 1). […] Thus, this preliminary assessment supports the idea that the collections of natural-product-inspired scaffolds could have high hit rates against biological screenings, even without having structural information about the biological targets and small-molecule modulators related to the targeted cellular functions. Further screening investigations of the synthetic collections prepared in the four-step process are currently underway in our laboratories.
Assay for in vitro anti-trypanosomal activity against T. brucei species According to a procedure previously used in [Toriizuka et al. Bioorg. Med. Chem. 2008, 16, 10182–10189.], Trypanosoma brucei brucei strain GUTat 3.1 (Glasgow University, Trypanozoon antigenic type 3.1) was generously donated from Dr. Y. Yabu (Nagoya City University). T. brucei brucei GUTat 3.1 strain was cultured in IMDM with 3.024 g/L NaHCO3, 100 μM hypoxanthine, 30 μM thymidine, 40 μM adenosine, 1.0 mM sodium pyruvate, 50 μM L-glutamine, 100 μM 2-mercaptoethanol, 50 U/mL of penicillin, and 50 μg/mL of streptomycin containing 10% heat-inactivated FBS at 37 °C, under 5.0% CO2–95% air, according to the protocol of [Yabu et al.
Southeast Asian J. Trop. Med. Public Health 1998, 29, 591]. In vitro antitrypanosomal activity of the test compounds was evaluated from a dose–response curve utilizing the fluorescent dye, Alamar Blue, according to the method of [Räz et al. Acta Trop. 1997, 68, 139 and Tasdemir et al.
Antimicrob. Agents Chemother. 2006, 50, 1352] with some modifications. Ninety-five microliters of trypanosome suspension ([…] trypanosomes/mL for GUTat 3.1 strain) of bloodstream forms was seeded into a 96-well microplate and 5.0 μL of test compound solution (dissolved in 5.0% dimethylsulfoxide: DMSO) was added. After incubating for 72 h at 37 °C under 5.0% CO2–95% air, 10 μL of Alamar Blue was added to each well. After further incubation for 3–6 h at 37 °C under 5.0% CO2–95% air, the microplate was measured at 528/20 nm excitation wavelength and 590/35 nm emission wavelength with an FLx800 fluorescent plate reader (Bio-Tek Instrument, Inc.Vermont, USA). Data were transferred into a graphic program (Excel) and the 50% inhibitory concentration (IC50) values were determined with fluorescent plate reader software (KC-4, […]
(§1) Cytotoxicity tests on MRC-5 cells
(§2) The human diploid embryonic cell line, MRC-5, was a generous gift from Dr. L. Maes (Tibotec NV, Mechelen, Belgium). Cytotoxicity of the test compound was measured by the colorimetric MTT assay [Mossman, T. J. Immunol. Methods 1983, 65, 55 and Otoguro, K. et al. ATLA:Alternatives to Laboratory Animals 1991, 19, 352] in 96-well microplates. In brief, 100 μL of MRC-5 cell suspension was added to 96-well microplates at 1 × 10^3 cells/well and the cells were cultured for 24 h. Then, 90 μL of standard culture medium (MEM + 10% FCS) with or without 10 μL of test compound solution that was dissolved in 25% ethanol or 5% DMSO was added to each well.
(§3) Further incubation was conducted at 37 °C under 5% CO2–95% air for 7 days and then 20 μL of MTT–PBS solution (5 mg/mL) was added to each well. The microplate was incubated at 37 °C for 4 h under 5% CO2–95% air. Then, the incubation medium was aspirated and 100 μL of DMSO was added to solubilize the MTT formazan product. After mixing, absorbance at 540 nm was measured with iEMS microplate reader MF. The IC50 value was estimated from the dose–response curve.
In general terms: The colour change of resazurin is a common sign of viable cells or microbes.

Series [2] can be described thus: Cytotoxicity on MRC-5 cells (MTT assay). The settings on record: human, MRC-5 cells (human diploid embryonic cell line). Type of series: cell-based. How it is done:
as §1, §2, §3
On the technique in general: Formazan colour is commonly taken as a measure of viable cells.

Where [3] appears, read: T. brucei brucei GUTat 3.1 strain.
Setting [4] is: T. brucei brucei GUTat 3.1 strain, 2.0–2.5 × 10^4 trypanosomes/mL.

As for `CC(=O)C12OC34N(CCCC3(C)N(C(CC(C)C)C(=O)NC(C)(C)C)C(=O)C43c4ccccc4N(S(=O)(=O)c4ccccc4[N+](=O)[O-])C13)C2=O` (stereo not shown) [63b], the “antitrypanosomal activity (in words)” value in series [1] (setting [3]) is “insignificant activities”.

With `Cc1ccc(C(=O)Nc2ccc(S(=O)(=O)O)c3cc(S(=O)(=O)O)cc(S(=O)(=O)O)c23)cc1NC(=O)c1cccc(NC(=O)Nc2cccc(C(=O)Nc3cc(C(=O)Nc4ccc(S(=O)(=O)O)c5cc(S(=O)(=O)O)cc(S(=O)(=O)O)c45)ccc3C)c2)c1` [suramin, reference compound], in series [1], the “Selectivity Index (SI)” value is on record as above 63 and the IC50 was 1.58 µg/mL (≈ 1.22 µM). Moreover, in series [2], the IC50 at 7 days is above 100 µg/mL.

For the molecule `CC(=O)[C@@]12C[C@@H]3CN([C@H](C(=O)NC(C)(C)C)c4c[nH]c5ccccc45)C(=O)[C@@]4(C)CCCN(C1=O)[C@@]34O2` [39c], the “antitrypanosomal activity (in words)” value in series [1] (setting [3]) is “substantial loss of the activities”. For the same molecule, the IC50 in series [1] (setting [4]) was above 12.5 µg/mL.

Turning to `NCCCC(N)(C(=O)O)C(F)F` (stereo not shown) [eflornithine, reference compound], the “Selectivity Index (SI)” value in series [1] is listed as above 44. The half-inhibitory concentration (IC50) in series [1] (setting [4]) was found to be 2.27 µg/mL (≈ 12.5 µM). Further, in series [2], the IC50 at 7 days is above 100 µg/mL.

Take `N=C(N)c1ccc(OCCCCCOc2ccc(C(=N)N)cc2)cc1` [pentamidine, reference compound]: the “Selectivity Index (SI)” value in series [1] worked out at 3600. Also, in series [1] (setting [4]), the IC50 is 0.00158 µg/mL (≈ 0.00464 µM). Moreover, the half-inhibitory concentration (IC50) at 7 days in series [2] was 5.71 µg/mL (≈ 16.8 µM).

With `CC(=O)[C@@]12O[C@@]34N(CCC[C@]3(C)N([C@@H](CC(C)C)C(=O)NC(C)(C)C)C(=O)[C@]43c4ccccc4N(S(=O)(=O)c4ccccc4[N+](=O)[O-])[C@H]13)C2=O` [63a], the “antitrypanosomal activity (in words)” value in series [1] (setting [3]) was “insignificant activities”.

As for `CC(=O)C12CC3CN(C(C(=O)NC(C)(C)C)c4cn(S(=O)(=O)c5ccccc5[N+](=O)[O-])c5ccccc45)C(=O)C4(C)CCCN(C1=O)C34O2` (stereo not shown) [39b], the “Selectivity Index (SI)” value in series [1] is 8.7. This molecule also displayed an IC50 anti-trypanosomal activity in series [1] (setting [4]) of 0.46 µg/mL (≈ 0.665 µM). Also, in series [2], half-maximal inhibition (IC50 at 7 days) required 4.02 µg/mL (≈ 5.81 µM).

`CC(=O)[C@]12O[C@]34[C@@H](CN([C@H](C(=O)NC(C)(C)C)c5cn(S(=O)(=O)c6ccccc6[N+](=O)[O-])c6ccccc56)C(=O)[C@@]3(C)CCCN4C1=O)C2(C)C` [41b]: in series [1], the “Selectivity Index (SI)” value is 5.9. The half-inhibitory concentration (IC50) in series [1] (setting [4]) turned out to be 5.89 µg/mL (≈ 8.18 µM). Further, the IC50 at 7 days in series [2] worked out at 34.6 µg/mL (≈ 48.1 µM).

`CC(=O)[C@@]12O[C@@]34N(CCC[C@]3(C)C(=O)N([C@H](C(=O)NC(C)(C)C)c3cn(S(=O)(=O)c5ccccc5[N+](=O)[O-])c5ccccc35)C[C@]43c4ccccc4N(S(=O)(=O)c4ccccc4[N+](=O)[O-])[C@H]13)C2=O` [30b]: in series [1] (setting [3]), the “antitrypanosomal activity (in words)” value is recorded as “negligible”. Besides, the IC50 in series [1] was above 12.5 µg/mL.

With `COc1ccc(CN2C(=O)[C@@]3(C)CCCN4C(=O)[C@]5(C(C)=O)O[C@@]43[C@@]3(c4ccccc4N(S(=O)(=O)c4ccccc4[N+](=O)[O-])[C@H]53)[C@H]2C(=O)NC(C)(C)C)cc1` (racemic) [25b], the “antitrypanosomal activity (in words)” value in series [1] (setting [3]) is “negligible”. For the same molecule, the half-maximal inhibitory concentration (IC50) in series [1] (setting [4]) is above 12.5 µg/mL.

`CC(=O)C12CC3CN(C(C(=O)NC(C)(C)C)c4cn(S(=O)(=O)c5ccccc5[N+](=O)[O-])c5ccccc45)C(=O)C4(C)CCCN(C1=O)C34O2` (stereo not shown) [39a]: the “antitrypanosomal activity (in words)” value in series [1] (setting [3]) is on record as “negligible activities”. The same molecule had an IC50 anti-trypanosomal activity in series [1] (setting [4]) above 12.5 µg/mL.

For the molecule `COc1ccc(CN2C(=O)[C@@]3(C)CCCN4C(=O)[C@]5(C(C)=O)O[C@@]43[C@@]3(c4ccccc4N(S(=O)(=O)c4ccccc4[N+](=O)[O-])[C@H]53)[C@@H]2C(=O)NC(C)(C)C)cc1` (racemic) [25a], in series [1], the “Selectivity Index (SI)” value amounted to 4.1. For the same molecule, the 50% inhibitory concentration (IC50) in series [1] (setting [4]) was 5.9 µg/mL (≈ 7.64 µM). Further, 24.5 µg/mL (≈ 31.7 µM) corresponded to half-maximal inhibition in series [2] (IC50 at 7 days).

For orientation: IC50 means the concentration that gives 50% inhibition.
